Tests used:
cODN = assay: Photocrosslinking test with SPCX, UPLC analysis; format: biochemical
Method: The experiment was carried out as described below using the following ODN (^SPCX) and cODN:
10 μM of ODN (^SPCX) and 10 μM of cODN were dissolved in a 50 mM cacodylic acid buffer (pH 7.4) containing 100 mM of NaCl, and then heated at 90° C. for 1 minute, and then cooled at 4° C. Irradiation with light having 450 nm (LED) was carried out at 4° C. Analysis was then carried out by UPLC. The analysis conditions for UPLC are as follows. The measurement was carried out at a measurement wavelength of 260 nm and at a flow rate of 0.2 mL/min, using a mixed solution of ammonium formate and acetonitrile in which the initial conditions were 99% of ammonium formate and […], and 85% of ammonium formate and 15% of acetonitrile at the end of the analysis (10 minutes).

nucleic acids = conditions: irradiation with light having 350 nm; cited from earlier work

## 5'-TGCA^SPCXCCGT-3' [ODN (^SPCX)]
cODN; 450 nm (LED), 4° C., 10 μM ODN and 10 μM cODN
  progress of photocrosslinking reaction (UPLC peaks): progress of the photocrosslinking reaction was confirmed

## OC[C@H]1O[C@@H](n2c3ccccc3c3cc4ccc(=S)oc4cc32)CC1O (stereo partly shown) [^SPCX]
cODN; irradiation with light having 450 nm
  photoreactivity compared with pyranocarbazole (PCX): higher photoreactivity
cODN; irradiation with light having 450 nm, 4° C.
  light irradiation time giving photocrosslinking: 10 s

## O=c1ccc2cc3ccoc3cc2o1 [psoralen]
Nucleic acids
  time required for photoreaction: several hours

— patent publication US11214590B2, “Photoresponsive nucleotide analog capable of photocrosslinking in visible light region” (JAPAN ADVANCED INSTITUTE OF SCIENCE AND TECHNOLOGY, priority 2017, dated 2022)
